Source: article PMC7660103, “Discovery of Novel 3-Cyanopyridines as Survivin Modulators and Apoptosis Inducers” (Molecules, 2020)

Assays:
normal cell line WI-38 = experiment: SRB cytotoxicity assay, normal cell line WI-38; assay type: cell-based
Method: The cytotoxicity of the newly synthesized compounds on the normal cell line WI-38 was also evaluated in order to examine the safety of these compounds.
(§1) Cell viability was estimated using the SRB assay. Aliquots of 100 µL cell suspension (5 × 10^3 cells) in 96-well plates were incubated in complete media for 24 h. Cells were treated with a second aliquot of 100 µL media containing various concentrations of the tested compounds (0.01, 0.1, 1, 10, and 100 μM). After 72 h, cells were fixed by replacing media with 15 µL of 10% TCA and then incubated at 4 °C for 1 h. After that, TCA solution was removed, and the cells were washed 5 times with distilled water. Aliquots of 70 µL SRB solution (0.4% w/v) were added and incubated in a dark place at room temperature for 10 min. Plates were washed 3 times with 1% acetic acid and allowed to air dry overnight. Then, 150 µL of TRIS (10 mM) was added to dissolve protein-bound SRB stain. The absorbance was measured at 540 nm using BMG LABTECH®-FLUO star Omega microplate reader (Ortenberg, Germany).

[1] = test system: prostate carcinoma (PC-3) cells; experiment: SRB cytotoxicity assay, PC-3; assay type: cell-based, human; settings: for IC50: SRB assay, 72 h, mean ± SD of three experiments; for Selectivity Index PC-3: SI = IC50 on WI-38/IC50 on PC-3
Method: (§2) In the present work, sulforhodamine B (SRB) colorimetric assay was done to evaluate the cytotoxic activity of the synthesized 3-cyano pyridines 4a–4e, 5a–5e, and 6a–6e on three human cancer cell lines: prostate carcinoma (PC-3), breast cancer (MDA-MB-231) and hepatocellular carcinoma (HepG2) cell lines. 5-FU was used as a standard drug for comparison.
(§3) Human cancer cells were obtained from Nawah Scientific Inc. (Mokatam, Cairo, Egypt). Cells were maintained in DMEM media containing […] streptomycin, 100 units/mL penicillin, and 10% heat-inactivated fetal bovine serum in humified, 5% (v/v) CO2 atmosphere at 37 °C.
as §1

[2] = test system: hepatocellular carcinoma (HepG2) cells; experiment: SRB cytotoxicity assay, HepG2; assay type: cell-based, human; settings: for IC50: SRB assay, 72 h, mean ± SD of three experiments; for Selectivity Index HepG2: SI = IC50 on WI-38/IC50 on HepG2
Method: as §2, §3, §1

[3] = test system: breast cancer (MDA-MB-231) cells; experiment: SRB cytotoxicity assay, MDA-MB-231; assay type: cell-based, human; settings: for IC50: SRB assay, 72 h, mean ± SD of three experiments; for Selectivity Index MDA-MB-231: SI = IC50 on WI-38/IC50 on MDA-MB-231
Method: as §2, §3, §1

[4] = Homo sapiens, WI-38, mean ± SD of three experiments

melting point | SMILES | IC50 (normal cell line WI-38; [4]) | IC50 ([1]; Homo sapiens, PC-3) | IC50 ([2]; Homo sapiens, HepG2, 72 h) | Selectivity Index HepG2 [2] | IC50 ([3]; Homo sapiens, MDA-MB-231, 72 h) | Selectivity Index PC-3 [1] | Selectivity Index MDA-MB-231 [3] | IC50 (normal cell line WI-38; mean ± SD of three experiments) | IC50 [1] | IC50 [2] | IC50 [3]
 | N#Cc1c(-c2ccccc2)cc(-c2ccc(OCc3ccc(F)cc3)cc2)nc1N [Compound 4a, 2-Amino-6-(4-((4-fluorobenzyl)oxy)phenyl)-4-phenylnicotinonitrile] | 164 ± 4.5 µM | > 100 µM | 109 ± 0.35 µM | 1.50 | > 100 µM |  |  |  |  |  | 
125 to 127 °C | N#Cc1c(-c2ccc(F)cc2)cc(-c2ccc(OCc3ccc(F)cc3)cc2)nc1N [Compound 4b, 2-Amino-6-(4-((4-fluorobenzyl)oxy)phenyl)-4-(4-fluorophenyl)nicotinonitrile] | 127 ± 3.6 µM | > 100 µM | > 100 µM |  | > 100 µM |  |  |  |  |  | 
 | N#Cc1c(-c2ccc(Cl)cc2)cc(-c2ccc(OCc3ccc(F)cc3)cc2)nc1N [Compound 4c, 2-Amino-4-(4-chlorophenyl)-6-(4-((4-fluorobenzyl)oxy)phenyl)nicotinonitrile] | 137 ± 4.15 µM | > 100 µM | 62 ± 0.61 µM | 2.20 | > 100 µM |  |  |  |  |  | 
 | N#Cc1c(-c2ccc(Br)cc2)cc(-c2ccc(OCc3ccc(F)cc3)cc2)nc1N [Compound 4d, 2-Amino-4-(4-bromophenyl)-6-(4-((4-fluorobenzyl)oxy)phenyl)nicotinonitrile] | 104 ± 3.16 µM | 53 ± 1.12 µM | 66 ± 0.12 µM | 1.57 | 30 ± 0.18 µM | 1.96 | 3.46 |  |  |  | 
 | COc1ccc(-c2cc(-c3ccc(OCc4ccc(F)cc4)cc3)nc(N)c2C#N)cc1 [Compound 4e, 2-Amino-6-(4-((4-fluorobenzyl)oxy)phenyl)-4-(4-methoxyphenyl)nicotinonitrile] | 94.7 ± 2.5 µM | > 100 µM | > 100 µM |  | > 100 µM |  |  |  |  |  | 
 | O=c1[nH]cc(F)c(=O)[nH]1 [Compound 5-FU, reference compound] |  |  |  |  |  |  |  | 7.91 ± 1.8 µM | 8.83 ± 0.09 µM | 7.51 ± 0.11 µM | 9.35 ± 0.74 µM
 | N#Cc1c(-c2ccccc2)cc(-c2ccc(OCc3ccc(F)cc3)cc2)[nH]c1=O [Compound 5a, 6-(4-((4-Fluorobenzyl)oxy)phenyl)-2-oxo-4-phenyl-1,2-dihydropyridine-3-carbonitrile] | 174 ± 4.62 µM | 47.5 ± 0.611 µM | 30 ± 0.59 µM | 5.80 | 52 ± 0.4 µM | 3.66 | 3.34 |  |  |  | 
 | N#Cc1c(-c2ccc(F)cc2)cc(-c2ccc(OCc3ccc(F)cc3)cc2)[nH]c1=O [Compound 5b, 6-(4-((4-Fluorobenzyl)oxy)phenyl)-4-(4-fluorophenyl)-2-oxo-1,2-dihydropyridine-3-carbonitrile] | 132 ± 4.12 µM | 34.2 ± 0.45 µM | 21.8 ± 0.67 µM | 6.02 | 26.3 ± 0.73 µM | 3.84 | 4.99 |  |  |  | 
 | N#Cc1c(-c2ccc(Br)cc2)cc(-c2ccc(OCc3ccc(F)cc3)cc2)[nH]c1=O [Compound 5d, 4-(4-Bromophenyl)-6-(4-((4-fluorobenzyl)oxy)phenyl)-2-oxo-1,2-dihydropyridine-3-carbonitrile] | 181 ± 4.55 µM | 30.2 ± 0.85 µM | 27.3 ± 0.74 µM | 6.63 | 34.8 ± 0.9 µM | 5.99 | 5.20 |  |  |  | 
 | N#Cc1c(-c2ccccc2)cc(-c2ccc(OCc3ccc(F)cc3)cc2)[nH]c1=S [Compound 6a, 6-(4-((4-Fluorobenzyl)oxy)phenyl)-4-phenyl-2-thioxo-1,2-dihydropyridine-3-carbonitrile] | 97.4 ± 2.88 µM | > 100 µM | 60 ± 0.1 µM | 1.62 | 72 ± 0.52 µM |  | 1.35 |  |  |  | 
 | N#Cc1c(-c2ccc(F)cc2)cc(-c2ccc(OCc3ccc(F)cc3)cc2)[nH]c1=S [Compound 6b, 6-(4-((4-Fluorobenzyl)oxy)phenyl)-4-(4-fluorophenyl)-2-thioxo-1,2-dihydropyridine-3-carbonitrile] | 206 ± 4.73 µM | 60 ± 0.93 µM | 41 ± 0.69 µM | 5.01 | 66.7 ± 0.12 µM | 3.42 | 3.08 |  |  |  | 
 | N#Cc1c(-c2ccc(Cl)cc2)cc(-c2ccc(OCc3ccc(F)cc3)cc2)[nH]c1=S [Compound 6c, 4-(4-Chlorophenyl)-6-(4-((4-fluorobenzyl)oxy)phenyl)-2-thioxo-1,2-dihydropyridine-3-carbonitrile] | 89.6 ± 2.75 µM | 41.9 ± 0.61 µM | 38 ± 0.94 µM | 2.35 | 42 ± 0.48 µM | 2.13 | 2.13 |  |  |  | 
 | N#Cc1c(-c2ccc(Br)cc2)cc(-c2ccc(OCc3ccc(F)cc3)cc2)[nH]c1=S [Compound 6d, 4-(4-Bromophenyl)-6-(4-((4-fluorobenzyl)oxy)phenyl)-2-thioxo-1,2-dihydropyridine-3-carbonitrile] | 146 ± 4.55 µM | 99 ± 0.19 µM | 86 ± 0.15 µM | 1.69 | 71.2 ± 0.56 µM | 1.47 | 2.04 |  |  |  | 
 | COc1ccc(-c2cc(-c3ccc(OCc4ccc(F)cc4)cc3)[nH]c(=S)c2C#N)cc1 [Compound 6e, 6-(4-((4-Fluorobenzyl)oxy)phenyl)-4-(4-methoxyphenyl)-2-thioxo-1,2-dihydropyridine-3-carbonitrile] | 104 ± 3.16 µM | 35.9 ± 0.92 µM | 40.3 µM | 2.57 | 23.4 µM | 2.89 | 4.43 |  |  | 40.3 ± 0.99 µM | 23.4 ± 0.7 µM
